Measured values published in the supplement of paper PMC10307832.

Experiments:
Assay in all cases: relative viability (nuclei count vs DMSO), 5 days (fraction); higher = more cells survive
[1] = system: NCI-H647
In short: (§1)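 Values are medians from duplicate plates. Each reflects relative viability, defined as the nuclei count of treated wells over that of vehicle wells. Lung cancer cell lines in 1536-well plates were pin-tool dosed one day after seeding with one drug alone or with a fixed anchor-drug dose plus five library-drug doses (not always all listed) in √10 steps, then fixed, stained and imaged at 4× after 5 days.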

[2] = system: EPLC-272H
In short: as §1

[3] = system: LCLC-97TM1
In short: as §1

[4] = system: EMC-BAC-2
In short: as §1

[5] = system: NCI-H2347
In short: as §1

[6] = system: NCI-H1993
In short: as §1

[7] = system: NCI-H322M
In short: as §1

[8] = system: NCI-H2126
In short: as §1

[9] = system: NCI-H727
In short: as §1

[10] = system: NCI-H2085
In short: as §1

[11] = system: NCI-H1915
In short: as §1

[12] = system: H3255
In short: as §1

[13] = system: PC-14
In short: as §1

[14] = system: NCI-H1734
In short: as §1

[15] = system: HOP-62
In short: as §1

[16] = system: LXF-289
In short: as §1

Work on `COc1nc(C)cnc1NS(=O)(=O)c1cccnc1-c1ccc(-c2nnco2)cc1` [Zibotentan] + NC(=O)Nc1cc(-c2cccc(F)c2)sc1C(=O)N[C@H]1CCCNC1 [AZD7762] (partner 0.2 µM) yielded a relative viability ([1]; first compound 0.08 µM) of 0.353, a relative viability ([1]; first compound 0.253 µM) of 0.302 and a relative viability ([1]; first compound 0.8 µM) of 0.384. It also gave a relative viability ([1]; first compound 2.53 µM) of 0.676, a relative viability ([2]; first compound 0.08 µM) of 0.217 and a relative viability ([2]; first compound 0.253 µM) of 0.261. It also gave a relative viability ([2]; first compound 0.8 µM) of 0.168, a relative viability ([2]; first compound 2.53 µM) of 0.259 and a relative viability ([3]; first compound 0.08 µM) of 0.433. For the same compound, the relative viability ([3]; first compound 0.253 µM) was 0.165, the relative viability ([3]; first compound 0.8 µM) was 0.12 and the relative viability ([3]; first compound 2.53 µM) was 0.253. It also gave a relative viability ([4]; first compound 0.08 µM) of 1.08, a relative viability ([4]; first compound 0.8 µM) of 1.08 and a relative viability ([4]; first compound 2.53 µM) of 1.16. It also gave a relative viability ([5]; first compound 0.08 µM) of 0.733, a relative viability ([5]; first compound 0.253 µM) of 0.723 and a relative viability ([5]; first compound 0.8 µM) of 0.742. For the same compound, the relative viability ([5]; first compound 2.53 µM) was 0.945, the relative viability ([6]; first compound 0.08 µM) was 0.667 and the relative viability ([6]; first compound 0.253 µM) was 0.778. The relative viability ([6]; first compound 0.8 µM) was 0.728, the relative viability ([6]; first compound 2.53 µM) was 0.881 and the relative viability ([7]; first compound 0.08 µM) was 0.605. It also gave a relative viability ([7]; first compound 0.253 µM) of 0.551, a relative viability ([7]; first compound 0.8 µM) of 0.364 and a relative viability ([7]; first compound 2.53 µM) of 0.605. The relative viability ([8]; first compound 0.08 µM) was 0.986, the relative viability ([8]; first compound 0.253 µM) was 0.987 and the relative viability ([8]; first compound 0.8 µM) was 0.915. For the same compound, the relative viability ([8]; first compound 2.53 µM) was 1.04, the relative viability ([9]; first compound 0.08 µM) was 0.575 and the relative viability ([9]; first compound 0.253 µM) was 0.572. For the same compound, the relative viability ([9]; first compound 0.8 µM) was 0.497, the relative viability ([9]; first compound 2.53 µM) was 0.296 and the relative viability ([10]; first compound 0.08 µM) was 1.06. For the same compound, the relative viability ([10]; first compound 0.253 µM) was 0.953, the relative viability ([10]; first compound 0.8 µM) was 0.826 and the relative viability ([10]; first compound 2.53 µM) was 0.959. It also gave a relative viability ([11]; first compound 0.08 µM) of 0.836, a relative viability ([11]; first compound 0.253 µM) of 0.649 and a relative viability ([11]; first compound 0.8 µM) of 0.597. The relative viability ([11]; first compound 2.53 µM) was 0.683, the relative viability ([12]; first compound 0.08 µM) was 0.901 and the relative viability ([12]; first compound 0.253 µM) was 0.87. For the same compound, the relative viability ([12]; first compound 0.8 µM) was 0.825, the relative viability ([12]; first compound 2.53 µM) was 0.799 and the relative viability ([13]; first compound 0.08 µM) was 0.445. The relative viability ([13]; first compound 0.253 µM) was 0.264, the relative viability ([13]; first compound 0.8 µM) was 0.324 and the relative viability ([13]; first compound 2.53 µM) was 0.369. For the same compound, the relative viability ([14]; first compound 0.08 µM) was 0.629, the relative viability ([14]; first compound 0.253 µM) was 0.521 and the relative viability ([14]; first compound 0.8 µM) was 0.499. It also gave a relative viability ([14]; first compound 2.53 µM) of 0.55, a relative viability ([15]; first compound 0.08 µM) of 0.593 and a relative viability ([15]; first compound 0.253 µM) of 0.63. The relative viability ([15]; first compound 0.8 µM) was 0.479, the relative viability ([15]; first compound 2.53 µM) was 0.615 and the relative viability ([16]; first compound 0.08 µM) was 1.07. It also gave a relative viability ([16]; first compound 0.253 µM) of 1.05, a relative viability ([16]; first compound 0.8 µM) of 1.06 and a relative viability ([16]; first compound 2.53 µM) of 1.08.

Compound `O=c1cc(-c2cccc3c2Sc2ccccc2S3)oc(N2CCOCC2)c1` + NC(=O)Nc1cc(-c2cccc(F)c2)sc1C(=O)N[C@H]1CCCNC1 [AZD7762] (partner 0.2 µM) has a relative viability ([1]; first compound 0.08 µM) of 0.545, a relative viability ([1]; first compound 0.253 µM) of 0.422 and a relative viability ([1]; first compound 0.8 µM) of 0.456. For the same compound, the relative viability ([1]; first compound 2.53 µM) was 0.197, the relative viability ([1]; first compound 8 µM) was 0.49 and the relative viability ([2]; first compound 0.08 µM) was 0.19. The relative viability ([2]; first compound 0.253 µM) was 0.242, the relative viability ([2]; first compound 0.8 µM) was 0.22 and the relative viability ([2]; first compound 2.53 µM) was 0.24. For the same compound, the relative viability ([2]; first compound 8 µM) was 0.248, the relative viability ([3]; first compound 0.08 µM) was 0.303 and the relative viability ([3]; first compound 0.253 µM) was 0.191. It also gave a relative viability ([3]; first compound 0.8 µM) of 0.265, a relative viability ([3]; first compound 2.53 µM) of 0.114 and a relative viability ([3]; first compound 8 µM) of 0.345. The relative viability ([4]; first compound 0.08 µM) was 1.06, the relative viability ([4]; first compound 0.253 µM) was 1.37 and the relative viability ([4]; first compound 0.8 µM) was 0.952. The relative viability ([4]; first compound 2.53 µM) was 1.11, the relative viability ([4]; first compound 8 µM) was 1.2 and the relative viability ([5]; first compound 0.08 µM) was 0.738. The relative viability ([5]; first compound 0.253 µM) was 0.798, the relative viability ([5]; first compound 0.8 µM) was 0.799 and the relative viability ([5]; first compound 2.53 µM) was 0.749. It also gave a relative viability ([5]; first compound 8 µM) of 0.701, a relative viability ([6]; first compound 0.08 µM) of 0.707 and a relative viability ([6]; first compound 0.253 µM) of 0.763. For the same compound, the relative viability ([6]; first compound 0.8 µM) was 0.556, the relative viability ([6]; first compound 2.53 µM) was 0.749 and the relative viability ([6]; first compound 8 µM) was 0.728. For the same compound, the relative viability ([7]; first compound 0.08 µM) was 0.665, the relative viability ([7]; first compound 0.253 µM) was 0.537 and the relative viability ([7]; first compound 0.8 µM) was 0.51. For the same compound, the relative viability ([7]; first compound 2.53 µM) was 0.429, the relative viability ([7]; first compound 8 µM) was 0.534 and the relative viability ([8]; first compound 0.08 µM) was 1.02. For the same compound, the relative viability ([8]; first compound 0.253 µM) was 1.16, the relative viability ([8]; first compound 0.8 µM) was 1.04 and the relative viability ([8]; first compound 2.53 µM) was 1.03. For the same compound, the relative viability ([8]; first compound 8 µM) was 1.04, the relative viability ([9]; first compound 0.08 µM) was 0.501 and the relative viability ([9]; first compound 0.253 µM) was 0.655. For the same compound, the relative viability ([9]; first compound 2.53 µM) was 0.413, the relative viability ([9]; first compound 8 µM) was 0.739 and the relative viability ([10]; first compound 0.08 µM) was 1.01. It also gave a relative viability ([10]; first compound 0.253 µM) of 1.17, a relative viability ([10]; first compound 0.8 µM) of 1.02 and a relative viability ([10]; first compound 2.53 µM) of 0.836. The relative viability ([10]; first compound 8 µM) was 0.614, the relative viability ([11]; first compound 0.08 µM) was 0.716 and the relative viability ([11]; first compound 0.253 µM) was 0.761. The relative viability ([11]; first compound 0.8 µM) was 0.795, the relative viability ([11]; first compound 2.53 µM) was 0.681 and the relative viability ([11]; first compound 8 µM) was 0.716. For the same compound, the relative viability ([12]; first compound 0.08 µM) was 0.878, the relative viability ([12]; first compound 0.253 µM) was 0.996 and the relative viability ([12]; first compound 0.8 µM) was 0.758. It also gave a relative viability ([12]; first compound 2.53 µM) of 0.882, a relative viability ([12]; first compound 8 µM) of 0.901 and a relative viability ([13]; first compound 0.08 µM) of 0.338. It also gave a relative viability ([13]; first compound 0.253 µM) of 0.45, a relative viability ([13]; first compound 0.8 µM) of 0.264 and a relative viability ([13]; first compound 2.53 µM) of 0.263. For the same compound, the relative viability ([13]; first compound 8 µM) was 0.381, the relative viability ([14]; first compound 0.08 µM) was 0.512 and the relative viability ([14]; first compound 0.253 µM) was 0.541. For the same compound, the relative viability ([14]; first compound 0.8 µM) was 0.581, the relative viability ([14]; first compound 8 µM) was 0.63 and the relative viability ([15]; first compound 0.08 µM) was 0.477. The relative viability ([15]; first compound 0.253 µM) was 0.61, the relative viability ([15]; first compound 0.8 µM) was 0.869 and the relative viability ([15]; first compound 2.53 µM) was 0.493. The relative viability ([15]; first compound 8 µM) was 0.944, the relative viability ([16]; first compound 0.08 µM) was 1.11 and the relative viability ([16]; first compound 0.253 µM) was 1.18. It also gave a relative viability ([16]; first compound 0.8 µM) of 1.15, a relative viability ([16]; first compound 2.53 µM) of 1.09 and a relative viability ([16]; first compound 8 µM) of 1.12.
